Holding throughout (assay): NCI-60 cell line screen, 48 h
Assay [1] concerns CAKI-1 renal.
Assay [2] relates to SF-295 CNS.
In assay [3] the test system is M14 melanoma.
For assay [4], the system named is CCRF-CEM leukemia.
The subject of assay [5] is SNB-19 CNS.
Assay [6] concerns SK-MEL-28 melanoma.
Assay [7] deals with SNB-75 CNS.
The test system of assay [8] is MOLT-4 leukemia.
Assay [9] relates to NCI-H522 lung.
In assay [10] the test system is A498 renal.

Several values for one entry are separate records, joined by “and”; a condition that tells them apart may be missing. Identical values can stand only once.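 Briefly, cells in 96-well plates were exposed to five compound concentrations for 48 h, and endpoints were estimated by linear interpolation. GI50 marks 50% less growth. TGI: total growth inhibition.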 A value given as a limit tells only on which side of the number the result lay.

With `CC1(C2CCC3(C)OC3C2)CO1` (stereo unspecified), the TGI in assay [1], in assay [2], in assay [3], in [4], in [5] and in assay [6] was more than 100 µM each time. Moreover, the TGI in assay [7], in assay [8] and in assay [9] was more than 100 µM in each case.
In the case of `Cc1ccccc1OC(C)C(=O)NN1C(=O)CC(=O)N(c2ccccc2)C1=S` (stereo unspecified), the TGI in assay [1], in assay [2], in assay [3], in [5], in [6] and in [7] was more than 100 µM in each case. Also, the TGI in [8], in assay [9] and in assay [10] was more than 100 µM each time.
For `S=C(NCc1ccccc1)N/N=C/c1ccccn1`, the TGI is more than 96.6 µM in assay [1]; 9.32 µM in assay [3]; more than 100 µM in [5]; more than 100 µM in assay [6]; 47.8 µM in assay [7]; 16.6 µM in [8]. Besides, the TGI in [9] is 24.5 µM; in assay [10], more than 100 µM.
As to `Cc1cc2cc3c(cc2c(-c2ccc(N)cc2)n1)OCO3`, the TGI in assay [1] was 75.4 µM; in assay [2] it was more than 100 µM; in assay [3], more than 100 µM; in assay [4], more than 100 µM; in [5], more than 100 µM; in assay [8] it was 39.6 µM. The TGI in assay [9] was more than 100 µM.
As to `NS(=O)(=O)c1ccc(NNc2c3ccccc3nc3c(C(=O)Nc4ccc(S(=O)(=O)Nc5ncccn5)cc4)cccc23)cc1`, the TGI in assay [1], in [2], in assay [3], in assay [4], in assay [5] and in assay [6] was more than 25 µM in each case. The TGI in assay [7], in assay [8] and in [9] was more than 25 µM throughout.
For the compound `O=C1C=CC(=O)c2c(O)c(N3CCN(CCOCCO)CC3)c(Cl)c(O)c21`, the GI50 in assay [1] was 456 nM [middle of 4 runs]; in assay [5], 13.4 µM [middle of 4 runs]; in assay [8], 97 nM and 33.1 nM; in [9], 313 nM; in assay [10], 2.57 µM [middle of 4 runs]. Moreover, the TGI in [5] is 26.5 µM and 18.4 µM and 26.1 µM; in assay [6] it was 2.89 µM [middle of 4 runs]; in assay [7], 3.16 µM [middle of 4 runs]; in assay [8], 0.837 µM and 0.175 µM; in assay [9], 1.19 µM and 0.352 µM; in assay [10], 5.65 µM [middle of 4 runs].
`CCN(CC)CCN(C(=O)C(C)(C)C)c1ccccc1N`: the TGI in assay [1], in assay [2], in assay [3], in assay [4], in [5] and in assay [6] was more than 100 µM each time. The TGI in assay [7], in [8] and in [9] was more than 100 µM in each case.
On to `CCN(CC)c1nc(N(C)C)c2ccccc2n1`, for which the TGI was more than 100 µM in assay [1]; more than 100 µM in assay [2]; 72.1 µM in assay [3]; more than 100 µM in assay [5]; more than 100 µM in [6]; more than 100 µM in [7]. For the same compound, the TGI in assay [8] is 30.3 µM; in assay [9], 96.9 µM.
`O=C1c2ccccc2C(=O)N1c1nc(-c2ccc(Cl)cc2)cc(N2N=C(c3ccc(Br)cc3)CC2c2ccccc2)n1` (stereo unspecified): the TGI in [2] is 3.65 µM; in assay [3] it was more than 36.1 µM; in assay [4], more than 29.6 µM; in assay [5], more than 33.8 µM; in assay [6], 21.4 µM; in [8], more than 23.7 µM. The TGI in assay [9] came to 5.51 µM; in assay [10], 35.4 µM.
Turning to `CSc1nc(NC(C)C)c2c(n1)Sc1nc3ccccc3n1C2O` (stereo unspecified), the TGI in assay [1] was more than 100 µM; in [2], more than 100 µM; in assay [3] it was more than 100 µM; in assay [4], 4.95 µM; in assay [6] it was more than 100 µM; in assay [7], 23.4 µM. Further, the figures for the TGI in [8] and in assay [9] were 14.1 µM and 24.7 µM, respectively.
As to `COC(=O)C1=C(O)C(C(=O)OC)[C@]2(O)[C@H](C(=O)OC)[C@H]1C[C@@H](c1ccc([N+](=O)[O-])cc1)[C@H]2C(=O)OC` (stereo partly specified), the TGI is more than 100 µM in assay [1]; more than 100 µM in [2]; 44.5 µM in assay [3]; 67 µM in assay [4]; 65.5 µM in assay [5]; 50.9 µM in [6]. Besides, the TGI in assay [7] was more than 100 µM; in [8], 81.6 µM; in [9] it was 8.58 µM.
Regarding `C(/Cc1ccc2c(c1)OCO2)=N\NC1=NCCCN1`, the TGI was more than 100 µM in assay [2]; more than 100 µM in assay [3]; more than 100 µM in assay [4]; more than 100 µM in assay [5]; more than 100 µM in assay [6]; 81.1 µM in assay [7]. The TGI is 55.2 µM in assay [8], more than 100 µM in assay [9] and 72.8 µM in [10].
For `NCCC1CN(C(=O)OCc2ccccc2)c2ccccc21` (stereo unspecified), the TGI in [1] is more than 50.7 µM; in assay [2], 40.3 µM; in [3], 27.4 µM; in assay [5], more than 51.3 µM; in [6], 36 µM; in assay [7] it was 43.3 µM. In addition, the TGI in assay [8] is 52.1 µM; in assay [9], 28.8 µM; in [10], more than 52.2 µM.
On to `CC(=O)Nc1cc(Nc2cc(=O)[nH]c(=O)[nH]2)ccc1C`, for which the TGI in assay [2], in assay [3], in assay [4], in [5], in assay [6] and in assay [7] was more than 100 µM each time. For the same compound, the TGI in [10] is more than 100 µM.
Turning to `CC(=O)CC(=O)CCC(=O)O`, the TGI in [1], in [2], in assay [3], in assay [5], in assay [6] and in [8] was more than 100 µM throughout. This compound also had a TGI in assay [9] of more than 100 µM.
Regarding `CN(C)C(=S)Oc1ccc2ccc(=O)oc2c1`, the TGI in [1], in assay [2], in assay [3], in assay [5], in [6] and in assay [7] was more than 100 µM each time. Further, the TGI in assay [8], in assay [9] and in assay [10] was more than 100 µM throughout.
Turning to `CCOC(=O)C1(C(F)(F)F)N=C(CC)OC(N2CCOCC2)=N1` (stereo unspecified), the TGI in assay [1], in assay [2], in assay [3], in assay [4], in assay [5] and in [6] was more than 100 µM each time. Also, the TGI in [7], in [8] and in assay [9] was more than 100 µM in each case.
As for `C=CC1CN2CCC1CC2C(O)c1ccnc2ccccc12` (stereo unspecified), the TGI in [1], in assay [2], in assay [3], in [4], in [5] and in [6] was more than 100 µM throughout. Also, the TGI in [7] and in assay [8] was more than 100 µM throughout. For the same compound, the GI50 in assay [3] is more than 100 µM; in [4], more than 100 µM; in assay [7] it was more than 100000 nM.
Take `C=C(C)[C@@H]1CC[C@]2(C(=O)O)CC[C@]3(C)[C@H](CCC4[C@@]5(C)CC[C@H](C(=O)/C=C/c6ccc(O)c(O)c6)C(C)(C)[C@@H]5CC[C@]43C)[C@@H]12` (stereo partly specified): the TGI in assay [1] is 16.8 µM; in assay [2], 18.4 µM; in assay [3], 14.7 µM; in assay [4] it was more than 100 µM; in assay [5], more than 100 µM; in assay [7], more than 100 µM. The TGI in assay [8] was more than 100 µM.
For `CC(C)OC1OC(CO)C(O)CC1n1cc(F)c(=O)[nH]c1=O` (stereo unspecified), the TGI in assay [1], in [2], in [3], in assay [5], in assay [6] and in assay [7] was more than 100 µM in each case. In addition, the TGI in assay [9] is 37.8 µM; in assay [10] it was more than 100 µM.
As for `CCOC(=O)C(=O)C(=O)NN(C)C1=NCCN1`, the TGI in assay [2], in [3], in [4], in assay [5], in assay [6] and in assay [7] was more than 100 µM in each case. Also, the TGI in assay [8] and in assay [9] was more than 100 µM each time.
Take `Cc1nc(-c2cc3cc(Cl)ccc3oc2=O)cc2c1c(=O)oc1ccc(Cl)cc12`: the TGI in [2], in [3], in [4], in assay [5], in [6] and in assay [8] was more than 100 µM in each case. The TGI in [9] and in [10] was more than 100 µM in each case.
For the compound `O=[N+]([O-])c1cccnc1-n1cnc2ccccc21`, the TGI in [1], in assay [2], in assay [3], in assay [4], in assay [6] and in assay [7] was more than 100 µM each time. In addition, the TGI in assay [8] and in assay [10] was more than 100 µM throughout.
`O=C(NNCc1ccc(Cl)cc1)Nc1cccc2ccccc12`: the TGI in assay [1], in assay [2], in [3], in [4], in assay [5] and in assay [6] was more than 100 µM each time. The TGI in assay [7], in [8] and in assay [9] was more than 100 µM in each case.
With `CCN(CC)c1ccc2cc(-c3nc4ccccc4c(=O)[nH]3)c(=N)oc2c1`, the TGI in assay [1], in [2], in [3], in [4], in assay [5] and in assay [6] was more than 100 µM each time. Besides, the TGI in assay [7], in [8] and in [9] was more than 100 µM in each case.
`COc1c(C)c(C/C=C(\C)CC/C=C(\C)CCC=C(C)C)c(OC)c(OC)c1OC`: the TGI in [1], in assay [2], in [3], in assay [4], in assay [5] and in [7] was more than 100 µM in each case. Further, the TGI in assay [8] and in [9] was more than 100 µM each time.
Take `CC1OC2OC3C(OCC(O)C3O)OC(=O)[C@]34CCC(C)(C)CC3C3=CCC5[C@@]6(C)C[C@H](O)[C@H](OC7OC(CO)C(O)C(O)C7OC7OCC(OC(=O)CC(C)(O)CC(=O)OC1C(OC1OC(CO)C(O)C(O)C1O)C2O)C(O)C7O)[C@@](C)(CO)C6CC[C@@]5(C)[C@]3(C)CC4` (stereo partly specified): the TGI in assay [1] was determined as 16.1 µM; in assay [2] it was 13.4 µM; in [3], 15 µM; in assay [4] it was 28 µM; in [5] it was 22.9 µM; in assay [6] it was 6.22 µM. Also, the values for the TGI in assay [7], in assay [8] and in assay [9] were 22.9 µM, 21.3 µM and 22.5 µM, respectively.
Regarding `COc1ccccc1CNCCCCCCCCCCCCN1C(=O)c2ccc3c4c(ccc(c24)C1=O)C(=O)N(CCCCCCCCCCCCNCc1ccccc1OC)C3=O`, the GI50 in [1] was more than 50 µM; in [2] it was 2240 nM; in assay [5], more than 50 µM; in assay [6], more than 50 µM; in assay [7], 2000 nM; in assay [8], more than 50000 nM. Besides, the GI50 in [9] was more than 50000 nM; in [10], 806 nM. Further, the TGI is more than 50 µM in [1]; more than 50 µM in assay [2]; more than 50 µM in assay [5]; more than 50 µM in [6]; 46.9 µM in assay [7]; more than 50 µM in assay [8]. The TGI in assay [9] was more than 50 µM; in assay [10] it was 1.8 µM.
